In publication PMC9737391, “Trifluoromethylcinnamanilide Michael Acceptors for Treatment of Resistant Bacterial Infections” (International Journal of Molecular Sciences, 2022):
Converted amounts (≈) assume the structure as drawn. “And” between values parts separate entries of the source, which are not always exact repeats. Equal entries are not always repeated.

Legend:
S. aureus/MRSA [1] = tested on: S. aureus/MRSA; set-up: method as in ref 26, 51 = [26]; PMID 30087309; doi:10.3390/ijms19082318; 26. Pospisilova S. Kos J. Michnova H. Kapustikova I. Strharsky T. Oravec M. Moricz A.M. Bakonyi J. Kauerova T. Kollar P. Synthesis and spectrum of biological activities of novel N -arylcinnamamides In || [51]; 51. Pospisilova S. Kos J. Michnova H. Strharsky T. Cizek A. Jampilek J. N -Arylcinnamamides as antistaphylococcal agents Proceedings of the 4th International Electronic Conference on Medicinal Chemist; conditions: cited from earlier work
MRSA = tested on: MRSA; set-up: method as in ref 26, 51 = [26]; PMID 30087309; doi:10.3390/ijms19082318; 26. Pospisilova S. Kos J. Michnova H. Kapustikova I. Strharsky T. Oravec M. Moricz A.M. Bakonyi J. Kauerova T. Kollar P. Synthesis and spectrum of biological activities of novel N -arylcinnamamides In || [51]; 51. Pospisilova S. Kos J. Michnova H. Strharsky T. Cizek A. Jampilek J. N -Arylcinnamamides as antistaphylococcal agents Proceedings of the 4th International Electronic Conference on Medicinal Chemist; conditions: against MRSA; cited from earlier work
staphylococcal biofilm = tested on: staphylococcal biofilm; set-up: method as in ref 26, 51 = [26]; PMID 30087309; doi:10.3390/ijms19082318; 26. Pospisilova S. Kos J. Michnova H. Kapustikova I. Strharsky T. Oravec M. Moricz A.M. Bakonyi J. Kauerova T. Kollar P. Synthesis and spectrum of biological activities of novel N -arylcinnamamides In || [51]; 51. Pospisilova S. Kos J. Michnova H. Strharsky T. Cizek A. Jampilek J. N -Arylcinnamamides as antistaphylococcal agents Proceedings of the 4th International Electronic Conference on Medicinal Chemist; conditions: cited from earlier work
M. tuberculosis H37Ra = tested on: M. tuberculosis H37Ra; set-up: method as in ref 26 = [26]; PMID 30087309; doi:10.3390/ijms19082318; 26. Pospisilova S. Kos J. Michnova H. Kapustikova I. Strharsky T. Oravec M. Moricz A.M. Bakonyi J. Kauerova T. Kollar P. Synthesis and spectrum of biological activities of novel N -arylcinnamamides In; conditions: average over the named compounds; cited from earlier work
M. tuberculosis = tested on: M. tuberculosis; set-up: method as in ref 26 = [26]; PMID 30087309; doi:10.3390/ijms19082318; 26. Pospisilova S. Kos J. Michnova H. Kapustikova I. Strharsky T. Oravec M. Moricz A.M. Bakonyi J. Kauerova T. Kollar P. Synthesis and spectrum of biological activities of novel N -arylcinnamamides In; conditions: MTT, at MIC values; cited from earlier work
[2] = tested on: Plasmodium falciparum 3D7; set-up: method as in PMID 36431900; conditions: read-out: IC50 against Plasmodium falciparum 3D7; cited from earlier work
M. smegmatis ATCC 700084 = test: In vitro antimycobacterial evaluation (MIC); type: cell-based, Mycobacterium smegmatis; conditions: Mycolicibacterium smegmatis, ATCC700084
[3] = tested on: methicillin-resistant S. aureus 63718 (MRSA3); test: MBC, agar aliquot subculture method; type: cell-based; conditions: Staphylococcus aureus; MRSA 63718
S. aureus ATCC 29213 = test: MTT assay, inhibition of bacterial respiration; type: cell-based, Staphylococcus aureus
Excerpt: The MTT assay can be used to assess cell growth by measuring respiration. Respiratory activity of bacterial cells (which is finally reflected in their viability) less than 70% after exposure to the MIC values for each tested compound is considered as a positive result of this assay. This low level of cell oxidative metabolism indicates inhibition of cell growth by inhibition of respiration. The lowest multiples of MIC values that achieved more than 70% inhibition of S. aureus ATCC 29213 viability (%) are shown in Table 3.
The percent inhibition of respiration of S. aureus ATCC 29213 was determined through the MTT assay. The assay was performed as described recently. The percent viability is calculated through the comparison of a measured value and that of the uninhibited control: % viability = OD570E/OD570P × 100, where OD570E is the reading from the compound-exposed cells, while OD570P is the reading from the uninhibited cells (positive control). Cytotoxic potential is determined by a percent viability of <70% [46, 47].

E. faecalis/VRE = test: Anti-enterococcal activity, summary over strains; type: cell-based, Enterococcus faecalis
[4] = tested on: M. smegmatis and M. marinum; test: Antimycobacterial activity, summary over both strains; type: cell-based; conditions: average over the named compounds and strains; read-out: average MIC against M. smegmatis and M. marinum
[5] = tested on: methicillin-resistant S. aureus SA 3202 (MRSA1); test: MBC, agar aliquot subculture method; type: cell-based; conditions: Staphylococcus aureus; MRSA SA 3202
[6] = tested on: vancomycin-resistant E. faecalis VRE 342B (VRE1); test: MIC, microtitration broth method; type: cell-based, Enterococcus faecalis
[7] = tested on: Mycobacterium marinum CAMP 5644; test: In vitro antimycobacterial evaluation (MIC); type: cell-based
[8] = tested on: methicillin-resistant S. aureus SA 630 (MRSA2); test: MBC, agar aliquot subculture method; type: cell-based; conditions: Staphylococcus aureus; MRSA SA 630
[9] = tested on: vancomycin-resistant E. faecalis VRE 368 (VRE2); test: MBC, agar aliquot subculture method; type: cell-based, Enterococcus faecalis
[10] = tested on: vancomycin-resistant E. faecalis VRE 725B (VRE3); test: MIC, microtitration broth method; type: cell-based, Enterococcus faecalis
[11] = tested on: vancomycin-resistant E. faecalis VRE 342B (VRE1); test: MBC, agar aliquot subculture method; type: cell-based, Enterococcus faecalis
[12] = tested on: vancomycin-resistant E. faecalis VRE 725B (VRE3); test: MBC, agar aliquot subculture method; type: cell-based, Enterococcus faecalis
[13] = tested on: Enterococcus faecalis ATCC 29212; test: MBC, agar aliquot subculture method; type: cell-based; conditions: ATCC29212, E. faecalis reference strain
[14] = tested on: methicillin-resistant S. aureus SA 630 (MRSA2); test: MIC, microtitration broth method; type: cell-based; conditions: Staphylococcus aureus; MRSA SA 630
[15] = tested on: Staphylococcus aureus ATCC 29213; test: MBC, agar aliquot subculture method; type: cell-based; conditions: ATCC29213, S. aureus ATCC 29213
[16] = tested on: human monocytic leukemia cell line THP-1; test: In vitro cell viability (cytotoxicity screening); type: cell-based; conditions: 24 h, medium with 10% FBS, ± SD, n = 6
Protocol: The investigated anilides can be divided into three groups. […] Higher concentrations (than 10 or 30 µM) were not possible to evaluate due to precipitation of the tested compounds in water medium. Based on all these observations, it can be concluded that the high antimicrobial activity of 3,5-CF3-substituted compounds is associated with significant cytotoxic effect against eukaryotic cells. On the other hand, the other still effective compounds, especially agents 1j and 1o, have an insignificant toxic effect, which makes them interesting for further study.
Human monocytic leukemia THP-1 cells obtained from the European Collection of Cell Cultures (ECACC, Salisbury, UK) were used for in vitro antiproliferative assays. A recently described procedure was used.

[17] = tested on: vancomycin-resistant E. faecalis VRE 368 (VRE2); test: MIC, microtitration broth method; type: cell-based, Enterococcus faecalis
[18] = tested on: Enterococcus faecalis ATCC 29212; test: MIC, microtitration broth method; type: cell-based; conditions: ATCC29212, E. faecalis reference strain
[19] = tested on: Staphylococcus aureus ATCC 29213; test: MIC, microtitration broth method; type: cell-based; conditions: ATCC29213, S. aureus ATCC 29213
[20] = tested on: methicillin-resistant S. aureus SA 3202 (MRSA1); test: MIC, microtitration broth method; type: cell-based; conditions: Staphylococcus aureus; MRSA SA 3202
[21] = Lipophilicity determination by RP-HPLC; type: physicochemical; conditions: RP-HPLC, logarithm of capacity factor k
Protocol: It is evident from the graphs in Figure 1 that the correlation coefficients of the dependences of log k/log D6.5/log D7.4 have a value of r = 0.999 (n = 32), which means that the investigated compounds behave insignificantly differently in aqueous media with different pH. Moreover, lipophilicity was calculated as log P and Clog P using two prediction programs. […] Therefore, only log P values predicted by ACD/Percepta can be used for correlations with experimental values. These matches are shown in the graphs in Figure 2, and according to the correlation coefficient r~0.940 (n = 32), it can be argued that even the predicted lipophilicity values correlate with the experimentally measured ones. However, the largest variations were observed (no difference for series 1, 2) for compounds substituted with 2-Cl, 2-CF3, 2,5-Cl, 4-F, 4-CF3, and 3,5-F, 3,5-Cl. These are mainly substituents capable of forming hydrogen and other types of non-bonding interactions both with the surrounding environment and within the molecule. Overall, series 1 (3-CF3) is less lipophilic than series 2 (4-CF3), but the differences in the experimental data are insignificant. Unsubstituted derivatives 1a/2a are the least lipophilic compounds, while derivatives 1o/2o (3,5-Cl) and 1p/2p (3,5-CF3) are the most lipophilic compounds.
Experimental determination of lipophilicity values (log k, log D6.5, and log D7.4) was performed under the same conditions and on the same device as described by Strharsky et al..

[22] = tested on: methicillin-resistant S. aureus 63718 (MRSA3); test: MIC, microtitration broth method; type: cell-based; conditions: Staphylococcus aureus; MRSA 63718
S. aureus/MRSA [23] = test: Antistaphylococcal activity, summary over strains; type: cell-based, Staphylococcus aureus

O=C(/C=C/c1ccccc1)Nc1cc(C(F)(F)F)cc(C(F)(F)F)c1 [3b]
bactericidal effect (S. aureus/MRSA [1]): bactericidal effect in concentrations close to MICs | effect in combination with ciprofloxacin (MRSA): synergistic effect | effect in combination with tetracycline (MRSA): synergistic effect | effect in combination with vancomycin (MRSA): additivity | effect on staphylococcal biofilm (staphylococcal biofilm): ability to inhibit the growth of staphylococcal biofilm and disrupted mature biofilm in concentrations close to MICs | average MIC against M. tuberculosis H37Ra (M. tuberculosis H37Ra): ~ 24 µM | inhibition of M. tuberculosis respiration (M. tuberculosis): 77%

O=C(/C=C/c1ccccc1)Nc1ccc(Br)cc1Cl [3f]
IC50 [2]: 580 nM

O=C(/C=C/c1cccc(C(F)(F)F)c1)Nc1ccc(C(F)(F)F)cc1 [1j, (2E)-3-[3-(Trifluoromethyl)phenyl]-N-[4-(trifluoromethyl)phenyl]prop-2-enamide]
MIC (M. smegmatis ATCC 700084): 11.1 µM (≈ 3.99 µg/mL) | MBC [3]: 5.57 µM (≈ 2 µg/mL) | Conc.: lowest multiple of MIC with at least 70% inhibition of respiratory activity (S. aureus ATCC 29213): 0.5× MIC (0.5× MBC) | Conc.: the same concentration as multiple of MBC (S. aureus ATCC 29213): 0.5× MIC (0.5× MBC) | MIC (E. faecalis/VRE; Enterococcus faecalis, VRE, average over the named compounds and strains, read-out: average MIC against E. faecalis/VRE): ~15 µM (≈ 5.39 µg/mL) | anti-enterococcal MICs/MBCs (E. faecalis/VRE; range over E. faecalis and VRE isolates and over the named compounds): 2.34 to 44.5 µM | MIC [4]: ~4.1 µM (≈ 1.47 µg/mL) | MBC [5]: 2.78 µM (≈ 0.999 µg/mL) | MIC [6]: 22.3 µM (≈ 8.01 µg/mL) | MIC MM ([7]; M. marinum CAMP 5644): 0.348 – µM | MIC ([7]; Mycobacterium marinum, CAMP5644, M. marinum CAMP 5644): 0.29 to 22.2 µM (≈ 0.104 to 7.98 µg/mL) | MBC [8]: 1.39 µM (≈ 0.499 µg/mL) | MBC [9]: 44.5 µM (≈ 16 µg/mL) | MIC [10]: 22.3 µM (≈ 8.01 µg/mL) | MBC [11]: 22.3 µM (≈ 8.01 µg/mL) | MBC [12]: 22.3 µM (≈ 8.01 µg/mL) | MBC [13]: 22.3 µM (≈ 8.01 µg/mL) | MIC [14]: 1.39 µM (≈ 0.499 µg/mL) | MBC [15]: 2.78 µM (≈ 0.999 µg/mL) | IC50 [16]: > 30000 nM | melting point: 118 to 120 °C | MIC [17]: 44.5 µM (≈ 16 µg/mL) | MIC [18]: 22.3 µM (≈ 8.01 µg/mL) | MIC [19]: 2.78 µM (≈ 0.999 µg/mL) | MIC [20]: 2.78 µM (≈ 0.999 µg/mL) | log k [21]: 0.9247 | MIC [22]: 2.78 µM (≈ 0.999 µg/mL) | MIC (S. aureus/MRSA [23]; Staphylococcus aureus, MRSA, average over the named compounds and strains, read-out: average MIC against S. aureus/MRSA): ~1.4 µM (≈ 0.503 µg/mL) | antistaphylococcal MICs/MBCs (S. aureus/MRSA [23]; range over S. aureus and MRSA isolates and over the named compounds): 0.15 to 5.57 µM and 0.146 to 5.57 µM

O=C(/C=C/c1ccccc1)Nc1cc(Cl)cc(Cl)c1 [3d]
average MIC against M. tuberculosis H37Ra (M. tuberculosis H37Ra): ~ 24 µM | inhibition of M. tuberculosis respiration (M. tuberculosis): 77%
